Experimental data as given in patent US20230093099A1, “COMPOUNDS AND METHODS OF TREATING CANCERS” (CULLGEN (SHANGHAI), INC., priority 2019, published 2023).

What follows are compounds tested on RS4;11 cells (assay: Cell viability assay (CellTiter-Glo) in RS4;11 cells). Settings: Homo sapiens, 72 h; RS4;11 ALL cells treated for three days; read-out: cell viability inhibition IC50.
Type: cell-based
Procedure: Specific exemplary heterobifunctional compounds were first characterized using cell viability assays. RS4;11 ALL cells were treated with bifunctional degraders for three days. The IC50 values ranged from 2 nM to over 10 uM.
MV4;11, RS4;11, Kasumi-1, HEL and other cells were treated with NVP-BSK805, TG101209 or selected degraders for 3 days at indicated concentrations following a 3-fold serial dilution.
HEL, RS4;11, MV4;11, Kasumi-1 and other cells were cultured at 37° C. with 5% CO2 in RPMI 1640 or DMEM Medium supplemented with 10% fetal bovine serum. Cells were authenticated using the short tandem repeat (STR) assays. Mycoplasma test results were negative.
Cells were seeded at a density of 5000 cells per well in 96-well assay plates and treated with test compounds following a 8-point or 12-point 3-fold serial dilution. Three days later, cell viability was determined using the CellTiter-Glo assay kit according to the manufacturer's instructions. The dose-response curves were determined and IC50 values were calculated using the GraphPad Prism software following a nonlinear regression (least squares fit) method.

Compound | IC50
Cc1cnc(Nc2ccc(N3CCN(C(=O)CNc4ccc5c(c4)C(=O)N(C4CCC(=O)NC4=O)C5=O)CC3)cc2)nc1Nc1cccc(S(=O)(=O)NC(C)(C)C)c1 (centres unmarked) [JA-225, N-(tert-butyl)-3-((2-((4-(4-((2-(2,6-dioxopiperidin-3-yl)-1,3-dioxoisoindolin-5-yl)glycyl)piperazin-1-yl)phenyl)amino)-5-methylpyrimidin-4-yl)amino)benzenesulfonamide] | < 0.1 µM
O=C(CN1CCC(n2cc(-c3cnc4cccc(-c5cc(F)c(CN6CCOCC6)c(F)c5)c4n3)cn2)CC1)NCCCCCCCNc1ccc2c(c1)C(=O)N(C1CCC(=O)NC1=O)C2=O (centres unmarked) [JA-179, 2-(4-(4-(8-(3,5-difluoro-4-(morpholinomethyl)phenyl)quinoxalin-2-yl)-1H-pyrazol-1-yl)piperidin-1-yl)-N-(7-((2-(2,6-dioxopiperidin-3-yl)-1,3-dioxoisoindolin-5-yl)amino)heptyl)acetamide] | < 0.1 µM

Same assay, conditions: Homo sapiens, 72 h; RS4;11 cells; cell viability, 3 days, CellTiter-Glo; read-out: IC50

Compound | IC50
CS(=O)(=O)c1ccc(-c2cccc3nc(Nc4ccc(N5CCN(C(=O)CCOCCOCCOCCOCCOCCNc6ccc7c(c6)C(=O)N(C6CCC(=O)NC6=O)C7=O)CC5)cc4)nn23)cc1 (centres unmarked) [JA-193, 2-(2,6-Dioxopiperidin-3-yl)-5-((18-(4-(4-((5-(4-(methylsulfonyl)phenyl)-[1,2,4]triazolo[1,5-a]pyridin-2-yl)amino)phenyl)piperazin-1-yl)-18-oxo-3,6,9,12,15-pentaoxaoctadecyl)amino)isoindoline-1,3-dione] | > 10 µM
Cn1c(=O)n(C2CCC(=O)NC2=O)c2ccc(NCCCCCC(=O)N3CCC(n4cc(-c5cnc6cccc(-c7cc(F)c(CN8CCOCC8)c(F)c7)c6n5)cn4)CC3)cc21 (centres unmarked) [JA-288, 3-(5-((6-(4-(4-(8-(3,5-Difluoro-4-(morpholinomethyl)phenyl)quinoxalin-2-yl)-1H-pyrazol-1-yl)piperidin-1-yl)-6-oxohexyl)amino)-3-methyl-2-oxo-2,3-dihydro-1H-benzo[d]imidazol-1-yl)piperidine-2,6-dione] | > 0.5 µM
O=C(CN1CCC(n2cc(-c3cnc4cccc(-c5cc(F)c(CN6CCOCC6)c(F)c5)c4n3)cn2)CC1)NCCOCCOCCOCCOCCOCCNc1cccc2c1C(=O)N(C1CCC(=O)NC1=O)C2=O (centres unmarked) [JA-143, 2-[4-[4-[8-[3,5-Difluoro-4-(morpholinomethyl)phenyl]quinoxalin-2-yl]pyrazol-1-yl]-1-piperidyl]-N-[2-[2-[2-[2-[2-[2-[[2-(2,6-dioxo-3-piperidyl)-1,3-dioxo-isoindolin-4-yl]amino]ethoxy]ethoxy]ethoxy]ethoxy]ethoxy]ethyl]acetamide] | > 10 µM
O=C1CCC(N2C(=O)c3ccc(OCCCCCC(=O)N4CCC(n5cc(-c6cnc7cccc(-c8cc(F)c(CN9CCOCC9)c(F)c8)c7n6)cn5)CC4)cc3C2=O)C(=O)N1 (centres unmarked) [JA-260, 5-((6-(4-(4-(8-(3,5-Difluoro-4-(morpholinomethyl)phenyl)quinoxalin-2-yl)-1H-pyrazol-1-yl)piperidin-1-yl)-6-oxohexyl)oxy)-2-(2,6-dioxopiperidin-3-yl)isoindoline-1,3-dione] | 0.164 µM
O=C(CN1CCC(n2cc(-c3cnc4cccc(-c5cc(F)c(CN6CCOCC6)c(F)c5)c4n3)cn2)CC1)NCCCCCCCNc1ccc2c(c1)C(=O)N(C1CCC(=O)NC1=O)C2=O (centres unmarked) [JA-179, 2-(4-(4-(8-(3,5-difluoro-4-(morpholinomethyl)phenyl)quinoxalin-2-yl)-1H-pyrazol-1-yl)piperidin-1-yl)-N-(7-((2-(2,6-dioxopiperidin-3-yl)-1,3-dioxoisoindolin-5-yl)amino)heptyl)acetamide] | 0.0783 µM
Cc1cnc(Nc2ccc(N3CCN(C(=O)CCNc4ccc5c(c4)C(=O)N(C4CCC(=O)NC4=O)C5=O)CC3)cc2)nc1Nc1cccc(S(=O)(=O)NC(C)(C)C)c1 (centres unmarked) [JA-226, N-(tert-butyl)-3-((2-((4-(4-(3-((2-(2,6-dioxopiperidin-3-yl)-1,3-dioxoisoindolin-5-yl)amino)propanoyl)piperazin-1-yl)phenyl)amino)-5-methylpyrimidin-4-yl)amino)benzenesulfonamide] | 0.365 µM
Cc1ncsc1-c1ccc(CNC(=O)[C@@H]2C[C@@H](O)CN2C(=O)[C@@H](NC(=O)COCCOCCOCCOCCOCC(=O)N2CCC(n3cc(-c4cnc5cccc(-c6cc(F)c(CN7CCOCC7)c(F)c6)c5n4)cn3)CC2)C(C)(C)C)cc1 [JA-055, (2S,4R)-1-[(2S)-2-[[2-[2-[2-[2-[2-[2-[4-[4-[8-[3,5-Difluoro-4-(morpholinomethyl)phenyl]quinoxalin-2-yl]pyrazol-1-yl]-1-piperidyl]-2-oxo-ethoxy]ethoxy]ethoxy]ethoxy]ethoxy]acetyl]amino]-3,3-dimethyl-butanoyl]-4-hydroxy-N-[[4-(4-methylthiazol-5-yl)phenyl]methyl]pyrrolidine-2-carboxamide] | > 10 µM
CS(=O)(=O)c1ccc(-c2cccc3nc(Nc4ccc(N5CCN(CC(=O)NCCNc6cccc7c6C(=O)N(C6CCC(=O)NC6=O)C7=O)CC5)cc4)nn23)cc1 (centres unmarked) [JA-117, N-(2-((2-(2,6-Dioxopiperidin-3-yl)-1,3-dioxoisoindolin-4-yl)amino)ethyl)-2-(4-(4-((5-(4-(methylsulfonyl)phenyl)-[1,2,4]triazolo[1,5-a]pyridin-2-yl)amino)phenyl)piperazin-1-yl)acetamide] | 1.44 µM

Second part, the compound after the results:

IC50 | Compound
> 10 µM | CS(=O)(=O)c1ccc(-c2cccc3nc(Nc4ccc(N5CCN(CC(=O)NCCCCCCCNc6cccc7c6C(=O)N(C6CCC(=O)NC6=O)C7=O)CC5)cc4)nn23)cc1 (centres unmarked) [JA-116, N-(7-((2-(2,6-Dioxopiperidin-3-yl)-1,3-dioxoisoindolin-4-yl)amino)heptyl)-2-(4-(4-((5-(4-(methylsulfonyl)phenyl)-[1,2,4]triazolo[1,5-a]pyridin-2-yl)amino)phenyl)piperazin-1-yl)acetamide]
0.0658 µM | Cc1cnc(Nc2ccc(N3CCN(C(=O)CNc4ccc5c(c4)C(=O)N(C4CCC(=O)NC4=O)C5=O)CC3)cc2)nc1Nc1cccc(S(=O)(=O)NC(C)(C)C)c1 (centres unmarked) [JA-225, N-(tert-butyl)-3-((2-((4-(4-((2-(2,6-dioxopiperidin-3-yl)-1,3-dioxoisoindolin-5-yl)glycyl)piperazin-1-yl)phenyl)amino)-5-methylpyrimidin-4-yl)amino)benzenesulfonamide]
> 10 µM | CS(=O)(=O)c1ccc(-c2cccc3nc(Nc4ccc(N5CCN(CC(=O)NCCCCCNc6ccc7c(c6)C(=O)N(C6CCC(=O)NC6=O)C7=O)CC5)cc4)nn23)cc1 (centres unmarked) [JA-204, N-(5-((2-(2,6-Dioxopiperidin-3-yl)-1,3-dioxoisoindolin-5-yl)amino)pentyl)-2-(4-(4-((5-(4-(methylsulfonyl)phenyl)-[1,2,4]triazolo[1,5-a]pyridin-2-yl)amino)phenyl)piperazin-1-yl)acetamide]
0.143 µM | Cc1cnc(Nc2ccc(N3CCN(CC(=O)NCCOCCNc4cccc5c4C(=O)N(C4CCC(=O)NC4=O)C5=O)CC3)cc2)nc1Nc1cccc(S(=O)(=O)NC(C)(C)C)c1 (centres unmarked) [JA-087, 2-(4-(4-((4-((3-(N-(tert-Butyl)sulfamoyl)phenyl)amino)-5-methylpyrimidin-2-yl)amino)phenyl)piperazin-1-yl)-N-(2-(2-((2-(2,6-dioxopiperidin-3-yl)-1,3-dioxoisoindolin-4-yl)amino)ethoxy)ethyl)acetamide]
> 10 µM | Cc1ncsc1-c1ccc(CNC(=O)[C@@H]2C[C@@H](O)CN2C(=O)[C@@H](NC(=O)COCCOCCOCCOCCOCC(=O)N2CCN(c3ccc(Nc4nc5cccc(-c6ccc(S(C)(=O)=O)cc6)n5n4)cc3)CC2)C(C)(C)C)cc1 [JA-083, (2S,4R)-1-((S)-2-(tert-Butyl)-20-(4-(4-((5-(4-(methylsulfonyl)phenyl)-[1,2,4]triazolo[1,5-a]pyridin-2-yl)amino)phenyl)piperazin-1-yl)-4,20-dioxo-6,9,12,15,18-pentaoxa-3-azaicosanoyl)-4-hydroxy-N-(4-(4-methylthiazol-5-yl)benzyl)pyrrolidine-2-carboxamide]
2.98 µM | Cc1cnc(Nc2ccc(N3CCN(CC(=O)NCCCNc4cccc5c4C(=O)N(C4CCC(=O)NC4=O)C5=O)CC3)cc2)nc1Nc1cccc(S(=O)(=O)NC(C)(C)C)c1 (centres unmarked) [JA-091, 2-(4-(4-((4-((3-(N-(tert-Butyl)sulfamoyl)phenyl)amino)-5-methylpyrimidin-2-yl)amino)phenyl)piperazin-1-yl)-N-(3-((2-(2,6-dioxopiperidin-3-yl)-1,3-dioxoisoindolin-4-yl)amino)propyl)acetamide]
1.04 µM | Cc1cnc(Nc2ccc(N3CCN(CC(=O)NCCOCCOCCOCCOCCOCCNc4ccc5c(c4)C(=O)N(C4CCC(=O)NC4=O)C5=O)CC3)cc2)nc1Nc1cccc(S(=O)(=O)NC(C)(C)C)c1 (centres unmarked) [JA-241, 2-(4-(4-((4-((3-(N-(tert-butyl)sulfamoyl)phenyl)amino)-5-methylpyrimidin-2-yl)amino)phenyl)piperazin-1-yl)-N-(17-((2-(2,6-dioxopiperidin-3-yl)-1,3-dioxoisoindolin-5-yl)amino)-3,6,9,12,15-pentaoxaheptadecyl)acetamide]
> 0.5 µM | Cn1c(=O)n(C2CCC(=O)NC2=O)c2cccc(NCCCCCCC(=O)N3CCN(c4ccc(Nc5nc6cccc(-c7ccc(S(C)(=O)=O)cc7)n6n5)cc4)CC3)c21 (centres unmarked) [JA-285, 3-(3-Methyl-4-((7-(4-(4-((5-(4-(methylsulfonyl)phenyl)-[1,2,4]triazolo[1,5-a]pyridin-2-yl)amino)phenyl)piperazin-1-yl)-7-oxoheptyl)amino)-2-oxo-2,3-dihydro-1H-benzo[d]imidazol-1-yl)piperidine-2,6-dione]
> 10 µM | O=C(CN1CCC(n2cc(-c3cnc4cccc(-c5cc(F)c(CN6CCOCC6)c(F)c5)c4n3)cn2)CC1)NCCCCCCCNc1cccc2c1C(=O)N(C1CCC(=O)NC1=O)C2=O (centres unmarked) [JA-148, 2-(4-(4-(8-(3,5-Difluoro-4-(morpholinomethyl)phenyl)quinoxalin-2-yl)-1H-pyrazol-1-yl)piperidin-1-yl)-N-(7-((2-(2,6-dioxopiperidin-3-yl)-1,3-dioxoisoindolin-4-yl)amino)heptyl)acetamide]
> 10 µM | Cc1ncsc1-c1ccc(CNC(=O)[C@@H]2C[C@@H](O)CN2C(=O)[C@@H](NC(=O)CCC(=O)N2CCN(c3ccc(Nc4nc5cccc(-c6ccc(S(C)(=O)=O)cc6)n5n4)cc3)CC2)C(C)(C)C)cc1 [JA-069, (2S,4R)-1-((S)-3,3-Dimethyl-2-(4-(4-(4-((5-(4-(methylsulfonyl)phenyl)-[1,2,4]triazolo[1,5-a]pyridin-2-yl)amino)phenyl)piperazin-1-yl)-4-oxobutanamido)butanoyl)-4-hydroxy-N-(4-(4-methylthiazol-5-yl)benzyl)pyrrolidine-2-carboxamide]
